Measurements: US6956113B2 (priority 2000, dated 2005)

System: bioluminescent Salmonella tester strains (his- cells)

[N-]=[N+]=[N-] [NaN, sodium azide]
bioluminescent revertants after independent exposure (mutagenicity): detection of bioluminescent revertants
